# Laboratory results taken from patent publication US11472766B2, “Lipid nanoparticle composition” (Suzhou Abogen Biosciences Co., Ltd., priority 2020, dated 2022).
# Assays:
# [1] = test system: human erythropoietin (hEPO) mRNA; assay: Animal study: hEPO expression after tail vein injection of LNPs encapsulating hEPO mRNA (serum ELISA); format: in vivo; settings: hEPO level, female ICR mice, 0.5 mg/kg, 6 hours post administration, class symbols, Table 3
# Procedure, shortened: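 Female ICR mice (6-8 weeks) received LNPs carrying hEPO mRNA by tail vein injection at 0.5 mg/kg, with MC3 LNPs dosed the same way as positive control. Blood was drawn at set times (e.g., 6 h) and serum separated. hEPO was quantified by ELISA and reported as μg/ml.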
# [2] = Encapsulation efficiency of lipid nanoparticles (Quant-it Ribogreen RNA quantification assay); format: physicochemical; settings: LNP encapsulating hEPO mRNA; Table 3
# Procedure, shortened: (§1)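 LNPs of cationic lipid:DSPC:cholesterol:PEG-lipid (50:10:38.5:1.5 molar) with mRNA in 10–50 mM citrate pH 4, microfluidic mixing at 1:3 ethanol:aqueous, lipid:mRNA weight ratio ~10:1–30:1, dialysed into DPBS and 0.2 μm filtered. Size by DLS, 173° backscatter; encapsulation efficiency by Ribogreen assay.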
# [3] = Lipid nanoparticle size by dynamic light scattering (Malvern Zetasizer Nano ZS); format: physicochemical; settings: LNP: cationic lipid/DSPC/cholesterol/PEG-lipid 50:10:38.5:1.5, hEPO mRNA; Table 3
# Procedure, shortened: as §1
# [4] = Apparent pKa of LNP formulations (TNS fluorescence assay); settings: LNP cationic lipid/DSPC/cholesterol/DMG-PEG 50/10/38.5/1.5 mol %, Table 3
Compound,Expression at 6 h (μg/ml) [1],Encapsulation Efficiency [2],polydispersity [3],size nm [3],Apparant Pka [4]
CCCCCCCC(CCCCCCC)COC(=O)CCCCCN(CCCCCC(=O)OCC(CCCCCCC)CCCCCCC)CCN(CCC)C1CCC(O)CC1 (centres unmarked) [Compound 71],A (≥2),93.0%,0.038,91.13 nm,6.613
CCCCCCC(CCCCCC)COC(=O)CCCCCN(CCCCCC(=O)OCC(CCCCCC)CCCCCC)CCN(CCC)C1CCC(O)CC1 (centres unmarked) [Compound 72],A (≥2),93.5%,0.109,113.9 nm,6.712
CCCCCCCCC(CCCCCCCC)COC(=O)CCCCCN(CCCCCC(=O)OCC(CCCCCCCC)CCCCCCCC)CCN(CCCCC)C1CCC(O)CC1 (centres unmarked) [Compound 74],B (≥1 and <2),93.2%,0.076,54.58 nm,6.2
CCCCCCC(CCCCCC)COC(=O)CCCCCN(CCCCCC(=O)OCC(CCCCCC)CCCCCC)CCN(CCO)C1CCC1 [Compound 77],A (≥2),90.06%,0.038,69.81 nm,6.352
CCCCCCCCC(CCCCCCCC)COC(=O)CCCCCN(CCCCCC(=O)OCC(CCCCCCCC)CCCCCCCC)CCN(CCO)C1CC(F)(F)C1 [Compound 79],C (≥0.1 and <1),89.2%,0.154,52.19 nm,5.735
CCCCCCCCCCCOC(=O)CCCCCN(CCCCCC(=O)OCC(CCCCCCCC)CCCCCCCC)CCN(CCO)C1CC1 [Compound 80],B (≥1 and <2),85.2%,0.06,76.71 nm,6.201
CCCCCCCCCCCOC(=O)CCCCCN(CCCCCC(=O)OCC(CCCCCCCC)CCCCCCCC)CCN(CCO)C1CCC1 [Compound 81],A (≥2),94.6%,0.028,75.89 nm,6.476
CCCCCCCCCCCOC(=O)CCCCCN(CCCCCC(=O)OCC(CCCCCCCC)CCCCCCCC)CCN(CCO)C1CCCC1 [Compound 82],A (≥2),94.7%,0.025,87.68 nm,6.406
CCCCCCCCCCCOC(=O)CCCCCN(CCCCCC(=O)OCC(CCCCCCCC)CCCCCCCC)CCN(CCO)C1CCCCC1 [Compound 83],B (≥1 and <2),93.5%,0.087,67.62 nm,6.328
CCCCCCCCCCCOC(=O)CCCCCN(CCCCCC(=O)OCC(CCCCCCCC)CCCCCCCC)CCN(CCO)C1CCCCCC1 [Compound 84],B (≥1 and <2),93.2%,0.083,65.55 nm,6.064
CCCCC(CCCC)CCCCCC(=O)OCCCCCN(CCCCCOC(=O)CCCCCC(CCCC)CCCC)CCN(CCO)C1CCC1 [Compound 85],B (≥1 and <2),93.7%,0.065,82.91 nm,6.46
CCCCCCC(CCCCCC)CCCCCC(=O)OCCCCCN(CCCCCOC(=O)CCCCCC(CCCCCC)CCCCCC)CCN(CCO)C1CCC1 [Compound 86],C (≥0.1 and <1),93.8%,–,76.56 nm,6.32
CCCCCCCCC(CCCCCCCC)COC(=O)CCCCCN(CCCCCC(=O)OCC(CCCCCCCC)CCCCCCCC)CCN(CCO)C1CCOC1 (centres unmarked) [Compound 87],A (≥2),91.2%,0.037,65.71 nm,6.515
CCCCCCCCC(CCCCCC)COC(=O)CCCCCN(CCCCCC(=O)OCC(CCCCCC)CCCCCCCC)CCN(CCO)C1COC1 (centres unmarked) [Compound 88],D (<0.1),97.2%,0.21,66.89 nm,7.41
CCCCCCCCC(CCCCCC)COC(=O)CCCCCN(CCCCCC(=O)OCC(CCCCCC)CCCCCCCC)CCN(CCO)C1CCOCC1 (centres unmarked) [Compound 89],A (≥2),94.6%,0.028,84.53 nm,6.7
CCCCCCCCC(CCCCCC)COC(=O)CCCCCN(CCCCCC(=O)OCC(CCCCCC)CCCCCCCC)CCN(CCO)C1CCOC1 (centres unmarked) [Compound 90],B (≥1 and <2),97.3%,0.067,72 nm,6.6
CCCCCCCCC(CCCCCC)COC(=O)CCCCCN(CCCCCC(=O)OCC(CCCCCC)CCCCCCCC)CCN(CCO)C1CCSCC1 (centres unmarked) [Compound 91],B (≥1 and <2),92.1%,0.106,62.06 nm,6.257
CCCCCCCCC(CCCCCC)COC(=O)CCCCCN(CCCCCC(=O)OCC(CCCCCC)CCCCCCCC)CCN(C1CCCCC1)C1CC(O)C1 (centres unmarked) [Compound 92],B (≥1 and <2),95.2%,0.04,66.94 nm,6.331
CCCCCCCCC(CCCCCC)COC(=O)CCCCCN(CCCCCC(=O)OCC(CCCCCC)CCCCCCCC)CCN(C1CCC1)C1CCC(O)CC1 (centres unmarked) [Compound 93],A (≥2),98.3%,0.041,93.74 nm,6.491
CCCCC/C=C\CCCC(=O)C(CC/C=C\CCCCC)C(CCC/C=C\CCCCC)OC(=O)CCCCCN(CCO)CCCCCC(=O)OCCC/C=C/CCCCC (centres unmarked) [Compound 100],C (≥0.1 and <1),87.7%,0.208,58.6 nm,6.187
CCCCC/C=C\CCCC(=O)C(CC/C=C\CCCCC)C(CCC/C=C\CCCCC)OC(=O)CCCCCN(CCCCCC(=O)OCCC/C=C/CCCCC)CCN(CCO)C1CCC1 (centres unmarked) [Compound 101],B (≥1 and <2),85.5%,0.067,72 nm,6.071
CCCCCCCCC(CCCCCCCC)COC(=O)CCOCCN(CCOCCC(=O)OCC(CCCCCCCC)CCCCCCCC)CCN(CCO)C1CCC1 [Compound 102],B (≥1 and <2),94.10%,0.004,70.49 nm,6.406
CCCCCCCCC(CCCCCCCC)COC(=O)CCOCCN(CCOCCC(=O)OCC(CCCCCCCC)CCCCCCCC)CCN(CCO)C1CCCCC1 [Compound 104],A (≥2),89.96%,0.022,70.93 nm,6.184
CCCCCCCCC(CCCCCC)CC(=O)NCCCCCN(CCCCCNC(=O)CC(CCCCCC)CCCCCCCC)CCN(CCO)C1CCC1 (centres unmarked) [Compound 105],A (≥2),93.3%,0.042,92.4 nm,6.698
CCCCCCCCC(CCCCCC)CC(=O)NCCCCCN(CCCCCOC(=O)CC(CCCCCC)CCCCCCCC)CCN(CCO)C1CCC1 (centres unmarked) [Compound 108],A (≥2),95.6%,0.064,80.78 nm,6.711
CCCCCCCCC(CCCCCC)CNC(=O)CCCCCN(CCCCCC(=O)OCC(CCCCCC)CCCCCCCC)CCN(CCO)C1CC1 (centres unmarked) [Compound 109],A (≥2),97.6%,0.06,73.52 nm,6.633
CCCCCCCCC(CCCCCC)CNC(=O)CCCCCN(CCCCCC(=O)NCC(CCCCCC)CCCCCCCC)CCN(CCO)C1CC1 (centres unmarked) [Compound 110],C (≥0.1 and <1),90.0%,0.063,91.1 nm,6.696
CCCCCCCCC(CCCCCC)CNC(=O)CCCCCN(CCCCCC(=O)NCC(CCCCCC)CCCCCCCC)CCN(CCO)C1CCCC1 (centres unmarked) [Compound 111],B (≥1 and <2),89.0%,0.049,92.3 nm,6.668
CCCCCCCCC(CCCCCC)CC(=O)NCCCCCN(CCCCCNC(=O)CC(CCCCCC)CCCCCCCC)CCN(CCO)C1CC1 (centres unmarked) [Compound 113],A (≥2),91.2%,0.04,90 nm,6.728
CCCCCCCCC(CCCCCC)CC(=O)NCCCCCN(CCCCCNC(=O)CC(CCCCCC)CCCCCCCC)CCN(CCO)C1CCCC1 (centres unmarked) [Compound 114],A (≥2),89.3%,0.025,87.92 nm,6.695
